tested on: brain; experiment: Maturation of TTM-001 capsid, NGS enrichment in brain of CD-1 Outbred mice; format: in vivo; settings: NGS fold-enrichment of TTM-001 matured AAV capsid variants in the brain of CD-1 Outbred mice; intravenous 1.0×10^12 VG/dose; 14 days in life; RNA; relative to non-matured TTM-001 control
How it was run: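 Pooled matured TTM-001 or TTM-002 capsid libraries (loop IV region randomized by triple-codon or low-frequency point mutagenesis) dosed IV via tail vein at 1.0×10^12 VG/dose to three female CD-1 mice. Brain RNA taken after 14 days; RT-PCR and NGS gave fold enrichment versus parent TTM-001 or TTM-002 control.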

Sequence | Fold enrichment over TTM-001
KTINGSGSPHSKFKLQQT | 2.244 fold
KTINGSGSPHSKFLFQQT | 3.173 fold
KTINGSGSPHSKFSCQQT | 2.348 fold
KTINGSGSPHSKGCLQQT | 2.320 fold
KTINGSGSPHSKGGRQQT | 2.164 fold
KTINGSGSPHSKGIRQQT | 2.497 fold
KTINGSGSPHSKGRAQQT | 2.607 fold
KTINGSGSPHSKGRIQQT | 2.061 fold
KTINGSGSPHSKGRSQQT | 2.080 fold
KTINGSGSPHSKGVRQQT | 2.115 fold
KTINGSGSPHSKHLRQQT | 3.438 fold
KTINGSGSPHSKIGRQQT | 2.739 fold
KTINGSGSPHSKILWQQT | 2.838 fold
KTINGSGSPHSKIRLQQT | 2.348 fold
KTINGSGSPHSKIRPQQT | 2.080 fold
KTINGSGSPHSKKGGQQT | 2.009 fold
KTINGSGSPHSKKMSQQT | 2.235 fold
KTINGSGSPHSKKVSQQT | 2.088 fold
KTINGSGSPHSKLARQQT | 3.054 fold
KTINGSGSPHSKLCLQQT | 2.562 fold
KTINGSGSPHSKLCSQQT | 2.989 fold
KTINGSGSPHSKLCVQQT | 2.659 fold
KTINGSGSPHSKLFRQQT | 3.806 fold
KTINGSGSPHSKLIRQQT | 3.968 fold

Sequence | Fold enrichment over TTM-001
KTINGSGSPHSKLLRQQT | 2.981 fold
KTINGSGSPHSKLMRQQT | 2.056 fold
KTINGSGSPHSKLNKQQT | 3.181 fold
KTINGSGSPHSKLPRQQT | 2.562 fold
KTINGSGSPHSKLRLQQT | 2.065 fold
KTINGSGSPHSKLRMQQT | 2.106 fold
KTINGSGSPHSKLRNQQT | 3.112 fold
KTINGSGSPHSKLRPQQT | 2.060 fold
KTINGSGSPHSKLRRQQT | 6.231 fold
KTINGSGSPHSKLRSQQT | 2.309 fold
KTINGSGSPHSKLSKQQT | 2.482 fold
KTINGSGSPHSKLSRQQT | 2.380 fold
KTINGSGSPHSKLSWQQT | 2.322 fold
KTINGSGSPHSKLVRQQT | 2.801 fold
KTINGSGSPHSKLWLQQT | 3.199 fold
KTINGSGSPHSKLWSQQT | 2.190 fold
KTINGSGSPHSKLWTQQT | 2.140 fold
KTINGSGSPHSKLYMQQT | 2.015 fold
KTINGSGSPHSKMRAQQT | 3.382 fold
KTINGSGSPHSKMRPQQT | 2.652 fold
KTINGSGSPHSKNLRQQT | 2.022 fold
KTINGSGSPHSKNTRQQT | 2.047 fold
KTINGSGSPHSKNVRQQT | 2.123 fold
KTINGSGSPHSKPARQQT | 2.538 fold

Sequence | Fold enrichment over TTM-001
KTINGSGSPHSKPLRQQT | 2.844 fold
KTINGSGSPHSKPRGQQT | 2.147 fold
KTINGSGSPHSKPRLQQT | 3.337 fold
KTINGSGSPHSKPRPQQT | 2.352 fold
KTINGSGSPHSKPRSQQT | 2.235 fold
KTINGSGSPHSKPRVQQT | 2.441 fold
KTINGSGSPHSKPSRQQT | 2.438 fold
KTINGSGSPHSKPTRQQT | 3.201 fold
KTINGSGSPHSKPVRQQT | 2.529 fold
KTINGSGSPHSKPWLQQT | 2.138 fold
KTINGSGSPHSKQRSQQT | 2.395 fold
KTINGSGSPHSKQRVQQT | 2.117 fold
KTINGSGSPHSKQSRQQT | 2.156 fold
KTINGSGSPHSKQTRQQT | 2.650 fold
KTINGSGSPHSKRAAQQT | 3.838 fold
KTINGSGSPHSKRALQQT | 2.114 fold
KTINGSGSPHSKRAMQQT | 3.801 fold
KTINGSGSPHSKRASQQT | 2.173 fold
KTINGSGSPHSKRATQQT | 2.283 fold
KTINGSGSPHSKRFLQQT | 3.359 fold
KTINGSGSPHSKRGLQQT | 2.402 fold
KTINGSGSPHSKRGTQQT | 2.022 fold

From US20260250318A1, “COMPOSITIONS AND METHODS FOR CROSSING THE BLOOD BRAIN BARRIER” (VOYAGER THERAPEUTICS, INC., priority 2022, published 2026)
